Test results published in paper PMC8600407 (Soft matter, 2021).

How the values were obtained:
[1] = hydrophobicity of the aromatic group; source not stated; cited from earlier work
[2] = tested on: alkaline phosphatase (ALP); conditions: fff derivatives 8 mM, ALP 1.0 or 0.1 UmL^-1

c1ccc(-c2ccccc2)cc1 [biphenyl]
logP [1]: 3.71

phosphohydroxynaphthoic acid [pNP]
enzymatic hydrogelation, times faster than pB as enzyme trigger [2]: 50–60 times

O=C(O)c1ccc(-c2ccc(OP(=O)(O)O)cc2)cc1 [pBP, phosphohydroxybiphenyl-carboxylic acid]
enzymatic hydrogelation, times faster than pB as enzyme trigger [2]: 50–60 times
